Laboratory results taken from patent US12257251B2, “Use of FAK inhibitor in preparation of drug for treating tumors having NRAS mutation” (INXMED (NANJING) CO., LTD., priority 2019, dated 2025).

Tested on: GAK (NRAS^Q61L) melanoma cell line
Experiment: GAK CDX model (melanoma with an NRAS mutation): tumor growth
Type: in vivo, mouse
Details: for Tumor growth compared to the control group (in words): GAK model, daily treatment; for Mean TGI: daily, based on relative tumor volume on day 14
Description: 1.1. Test compound: BI853520, which was synthesized according to the method in the patent WO2010058032. BI853520 was formulated with 0.5% hydroxyethyl cellulose (Ashland).
1.2. Cells: The melanoma cell line GAK was purchased from JCRB Cell Bank, and HMVII cells were purchased from Sigma. GAK originated in the inguinal lymph nodes of patients with vaginal melanoma, whereas HMVII originated in primary vaginal melanoma. GAK and HMVII cells were cultured in tissue culture flasks containing 5% CO2 at 37° C. The media were Ham's F12 containing 10% heat-inactivated FBS and Ham's F10 containing 15% FBS, respectively. All media were supplemented with 100 U/mL penicillin, […] streptomycin, and 2 mM GlutaMAX. All cell culture reagents were purchased from GIBCO.
Both HMVII and GAK cell lines carried an NRAS mutation at the Q61 position. HMVII (NRAS^Q61K) and GAK (NRAS^Q61L)
1.3. Mice: 4-week-old female balb/c nude mice (purchased from Beijing Vital River Laboratory Animal Technology Co., Ltd.). After arriving in the animal room, the mice were allowed to acclimate to the new environment for at least 2 weeks before being used for assay. The animals were housed under standard conditions (temperature: 21.5±1.5° C., humidity: 55±10%). A Standard diet and autoclaved tap water were provided ad libitum. All animal care and experimental procedures were performed in accordance with the animal care ethics guidelines approved by the Medical Ethics Committee of Beijing Cancer Hospital and Research Institute.
To establish subcutaneous tumors, HMVII and GAK cells were harvested by trypsinization, centrifuged, washed and resuspended in ice-cold PBS+5% FCS. Then 100 l of the cell suspension containing 5×10^6 cells was injected subcutaneously into the right flank of nude mice (1 site per mouse). When tumors were well established and reached a median volume of approximately 400-600 mm^3, mice were randomly assigned to the treatment group and the control group.
1.5. Administration: BI 853520 was formulated in 0.5% hydroxyethyl cellulose, which was intragastrically administered through gavage needle every day, and the dosage was 10 mL/Kg body weight.
Tumor diameters were measured twice a week with calipers. The volume [mm^3] of each tumor was calculated according to the equation “tumor volume=length×diameter^2×π/6”. Animals were sacrificed at the end of the study (approximately two weeks after the start of treatment). During the study, animals with necrotic tumors or tumors exceeding 2000 mm^3 in size were sacrificed for ethical reasons.
Tumor volumes were statistically assessed at the end of the assay. For tumor volume, relative values were used.
The number of observations, and the median, minimum and maximum tumor volumes were calculated. For a quick overview of possible treatment effects, the following metrics were calculated: • Relative tumor volume: (T/C)
[formula] • TGI from day 1 to day d: TGI=100×[(Cd−C1)−(Td−T1)]/(Cd−C1) • wherein, C1, T1=mean relative tumor volume in control and treatment groups at the start of the assay (day 1); • Cd, Td=mean relative tumor volume in control and treatment groups at the end of the assay (day d).
Statistical evaluation was performed using the Student's t-test function in Microsoft Excel, using two-tailed distribution and two-sample equal variance type.
The significance level was fixed at α=5%. […]

In the case of `COc1cc(C(=O)NC2CCN(C)CC2)c(F)cc1Nc1ncc(C(F)(F)F)c(Oc2cccc3c2C(=O)N(C)C3)n1` [BI853520], the “Tumor growth compared to the control group (in words)” value is reported as “inhibit tumor growth”, the “Tumor growth compared to the control group (in words)” value (listed as BI 853520) is reported as “delayed tumor growth” and the Mean tumor volume (GAK, 50 mg/kg (1st week), 25 mg/kg (2nd week), daily gavage, day 14) is reported as 548 ± 144 mm^3. For the same compound, the “Mean TGI” value (GAK, 50 mg/kg (1st week), 25 mg/kg (2nd week)) was 80% and the “Mean TGI” value (GAK, 50 mg/kg (1st week), 25 mg/kg (2nd week), listed as BI 853520) was 80%.
